Experimental data published in PMC11547804, “Synthesis and Evaluation of Phenyltriazole-Deoxynojirimycin Hybrids as Potent α-Glucosidase Inhibitors” (Molecules, 2024).
Entries after “also recorded” stand apart in the source; their conditions may differ. Read-outs that look alike come from different tables or passages of the source.

Columns and labels:
[1] = target: β-glucosidase (almonds); conditions: data for 7–9 and DNJ included for comparative purposes; cited from earlier work
[2] = target: T1, α-glucosidase (yeast) (Saccharomyces cerevisiae, UniProt P53341); set-up: method as in doi:10.1080/07328303.2020.1837150; conditions: data for 7–9 and DNJ included for comparative purposes; cited from earlier work
T1 construct: purchased Sigma Chemical Co., St. Louis, MO, USA

[3] = target: T1, α-glucosidase (yeast); assay: α-glucosidase (yeast) inhibition assay, p-nitrophenyl glycopyranoside substrate; assay type: biochemical; conditions: 50 mM phosphate buffer pH 6.8, 37 °C; mean ± SD, three independent experiments
Procedure: (§1) Compounds 10–20 (except 15 for solubility reasons) were evaluated by in vitro α-glucosidase (yeast), β-glucosidase (almonds) inhibition studies.
(§2) Two glycosidases, α-glucosidase (yeast) and β-glucosidase (almonds), and their corresponding substrates, p-nitrophenyl glycopyranosides, were purchased from Sigma Chemical Co., St. Louis, MO, USA. Other commercial reagents and solvents were used as received. Reactions were monitored by Thin Layer Chromatography (TLC) analyses using silica gel GF254 plates bearing a 0.25 mm layer. Visualization of compounds was detected by short-wave UV fluorescence (λ = 254 nm) and/or by dipping into 5% phosphomolybdic acid in EtOH. Column chromatography was carried out by silica gel (200–300 mesh). NMR spectra (^1H and ^13C) were recorded with Bruker AV III 500 MHz spectrometer using CDCl3 (22–33), D2O (10–13, 16–20) or CD3OD (14, 15) as solvents. High-resolution mass spectra (HRMS) were obtained by direct injection on a mass spectrometer (Thermo Scientific LTQ Orbitrap XL, Waltham, MA, USA) equipped with an electrospray ion source in positive mode (see Supplementary Materials).
(§3) The α-glucosidase and β-glucosidase assays were performed in 50 mM phosphate buffer (pH 6.8) at 37 °C. The inhibitors were pre-incubated with the enzyme solutions at 37 °C for 15 min, and then the corresponding substrates were added. After the enzymatic reaction was incubated at 37 °C for 15 min., it was quenched by adding Na2CO3. Absorbance readings were taken on a BioTek µQuant Microplate Spectrophotometer at 405 nm. Experiments were performed in triplicate. The IC50 values were determined graphically using GraphPad Prism (version 8.0).

[4] = target: β-glucosidase (almonds); assay: β-glucosidase (almonds) inhibition assay, p-nitrophenyl glycopyranoside substrate; assay type: biochemical; conditions: 50 mM phosphate buffer pH 6.8, 37 °C; mean ± SD, three independent experiments
Procedure: as §1, §2, §3

[5] = target: T2, yeast α-glucosidase (Saccharomyces cerevisiae, UniProt P53341); assay: Kinetics of enzyme inhibition (Lineweaver–Burk plots); assay type: biochemical; conditions: for mode of inhibition: Lineweaver–Burk plot, same Vmax; for Ki: substrate para-nitrophenyl α-D-glucopyranoside, pH 6.8, 37 °C, read-out: inhibition constant (Ki)
T2 construct: purchased Sigma Chemical Co., St. Louis, MO, USA
Procedure: In order to gain further insight into how these hybrids interact with α-glucosidase, the mode of inhibition for compounds 18 and 19 as representative examples was analyzed using the Lineweaver–Burk plot (Figure 2).
The inhibition types of the selected compounds were determined from Lineweavere–Burk plots. […] The enzyme reaction was performed according to the conditions described above.
Figure 2 Double-reciprocal plots of the inhibition kinetics of yeast α-glucosidase by compounds 18 (a), 19 (b).

[6] = Cell proliferation / viability CCK-8 assay; assay type: cell-based; conditions: human, HL60 cells; HL60, 50 µM, 24 h, CCK-8
Procedure: (§4) Compounds 9, 13 and 17–20 with better inhibitory activity on α-glucosidase were selected to study the effect on cell viability and proliferation by CCK-8 assay (Figure 5). […] When viability was measured at 50 µM for these compounds, the viability of compound 19 was 96.97% compared with 20.89% for compound 20. […] With the increase in compound concentration, a lot of dead cells and more cell debris were observed, and the culture medium became muddy for 20, which was not obviously observed for 9, 13 and 17–19.
(§5) HL60 cells in DMEM supplemented with 10% fetal bovine serum were seeded at a density of 5 × 10^3 cells/well in a 96-well plate and incubated at 37 °C for 24 h. The medium was substituted with fresh medium containing a range of concentrations of inhibitors in DMSO and cultured for another 24 h. CCK-8 solution (10 µL) was added to each well incubated at 37 °C for 1 h. The absorbance was read on a BioTek µQuant Microplate Spectrophotometer at 450 nm. The cell vitality curve was depicted with GraphPad Prism (version 8.0).

[7] = tested on: HL60 cells; assay: Cell proliferation / viability CCK-8 assay; assay type: cell-based; conditions: for cell survival rate: HL60, 80 µM, 24 h, CCK-8
Procedure: as §4, §5

T2 sequence (P53341 whole entry): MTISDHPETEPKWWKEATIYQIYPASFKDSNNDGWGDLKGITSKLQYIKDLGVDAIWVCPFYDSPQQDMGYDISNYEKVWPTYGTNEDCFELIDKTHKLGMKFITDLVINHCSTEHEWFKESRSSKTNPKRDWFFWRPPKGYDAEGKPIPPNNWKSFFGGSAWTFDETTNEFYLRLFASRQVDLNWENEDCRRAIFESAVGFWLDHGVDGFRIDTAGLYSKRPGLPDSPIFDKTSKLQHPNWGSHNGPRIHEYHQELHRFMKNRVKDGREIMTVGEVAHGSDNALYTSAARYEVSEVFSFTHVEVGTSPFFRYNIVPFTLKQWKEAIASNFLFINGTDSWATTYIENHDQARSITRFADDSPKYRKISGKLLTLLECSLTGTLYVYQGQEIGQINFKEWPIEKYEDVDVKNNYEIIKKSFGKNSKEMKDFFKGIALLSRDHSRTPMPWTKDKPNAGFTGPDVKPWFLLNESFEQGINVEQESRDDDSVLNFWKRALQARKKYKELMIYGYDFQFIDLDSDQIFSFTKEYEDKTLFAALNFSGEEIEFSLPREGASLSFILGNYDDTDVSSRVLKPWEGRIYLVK
T1 sequence (P53341 whole entry): as above

SMILES | IC50 [3] [µM] | IC50 [4] [µM] | other results
OC[C@@H]1[C@@H](O)[C@H](O)[C@@H](O)CN1CCCCn1cc(-c2ccccc2)nn1 [Compound 7] |  |  | IC50 [1]: > 1000 µM; IC50 [2]: 551 ± 25 µM
Cc1ccc(-c2cn(CCCCN3C[C@H](O)[C@@H](O)[C@H](O)[C@H]3CO)nn2)cc1 [Compound 8] |  |  | IC50 [1]: > 1000 µM; IC50 [2]: 324 ± 65 µM
CCCCCc1ccc(-c2cn(CCCCN3C[C@H](O)[C@@H](O)[C@H](O)[C@H]3CO)nn2)cc1 [Compound 9] |  |  | IC50 [1]: 665 ± 57 µM; IC50 [2]: 63 ± 6 µM
CCCCc1ccc(-c2cn(CCCCCCN3C[C@H](O)[C@@H](O)[C@H](O)[C@H]3CO)nn2)cc1 [Compound 18, (2R,3R,4R,5S)-1-(6-(4-(4-butylphenyl)-1H-1,2,3-triazol-1-yl)hexyl)-2-(hydroxymethyl)piperidine-3,4,5-triol] | 11 ± 1 | 69 ± 5 | mode of inhibition [5]: competitive; Ki [5]: 3.8 µM
CCCCCc1ccc(-c2cn(CCCCCCN3C[C@H](O)[C@@H](O)[C@H](O)[C@H]3CO)nn2)cc1 [Compound 19, (2R,3R,4R,5S)-2-(hydroxymethyl)-1-(6-(4-(4-pentylphenyl)-1H-1,2,3-triazol-1-yl)hexyl)piperidine-3,4,5-triol] | 11 ± 1 | 73 ± 7 | mode of inhibition [5]: competitive; Ki [5]: 3.7 µM; viability at 24 h, 50 µM [6]: 97%; cell survival rate [7]: 71.28%

Now from value to molecule, other results behind:

IC50 [3] [µM] | IC50 [4] [µM] | SMILES | other results
244 ± 32 | > 1000 | CCc1ccc(-c2cn(CCCCN3C[C@H](O)[C@@H](O)[C@H](O)[C@H]3CO)nn2)cc1 [Compound 10, (2R,3R,4R,5S)-1-(4-(4-(4-ethylphenyl)-1H-1,2,3-triazol-1-yl)butyl)-2-(hydroxymethyl)piperidine-3,4,5-triol] | 
171 ± 25 | 739 ± 78 | CCCc1ccc(-c2cn(CCCCN3C[C@H](O)[C@@H](O)[C@H](O)[C@H]3CO)nn2)cc1 [Compound 11, (2R,3R,4R,5S)-2-(hydroxymethyl)-1-(4-(4-(4-propylphenyl)-1H-1,2,3-triazol-1-yl)butyl)piperidine-3,4,5-triol] | 
105 ± 9 | 770 ± 92 | CCCCc1ccc(-c2cn(CCCCN3C[C@H](O)[C@@H](O)[C@H](O)[C@H]3CO)nn2)cc1 [Compound 12, (2R,3R,4R,5S)-1-(4-(4-(4-butylphenyl)-1H-1,2,3-triazol-1-yl)butyl)-2-(hydroxymethyl)piperidine-3,4,5-triol] | 
82 ± 5 | 529 ± 41 | CCCCCCc1ccc(-c2cn(CCCCN3C[C@H](O)[C@@H](O)[C@H](O)[C@H]3CO)nn2)cc1 [Compound 13, (2R,3R,4R,5S)-1-(4-(4-(4-hexylphenyl)-1H-1,2,3-triazol-1-yl)butyl)-2-(hydroxymethyl)piperidine-3,4,5-triol] | 
130 ± 9 | 130 ± 5 | OC[C@@H]1[C@@H](O)[C@H](O)[C@@H](O)CN1CCCCCCn1cc(-c2ccccc2)nn1 [Compound 14, (2R,3R,4R,5S)-2-(hydroxymethyl)-1-(6-(4-phenyl-1H-1,2,3-triazol-1-yl)hexyl)piperidine-3,4,5-triol] | 
68 ± 4 | 65 ± 2 | CCc1ccc(-c2cn(CCCCCCN3C[C@H](O)[C@@H](O)[C@H](O)[C@H]3CO)nn2)cc1 [Compound 16, (2R,3R,4R,5S)-1-(6-(4-(4-ethylphenyl)-1H-1,2,3-triazol-1-yl)hexyl)-2-(hydroxymethyl)piperidine-3,4,5-triol] | 
14 ± 1 | 62 ± 4 | CCCc1ccc(-c2cn(CCCCCCN3C[C@H](O)[C@@H](O)[C@H](O)[C@H]3CO)nn2)cc1 [Compound 17, (2R,3R,4R,5S)-2-(hydroxymethyl)-1-(6-(4-(4-propylphenyl)-1H-1,2,3-triazol-1-yl)hexyl)piperidine-3,4,5-triol] | 
16 ± 2 | 77 ± 4 | CCCCCCc1ccc(-c2cn(CCCCCCN3C[C@H](O)[C@@H](O)[C@H](O)[C@H]3CO)nn2)cc1 [Compound 20, (2R,3R,4R,5S)-1-(6-(4-(4-hexylphenyl)-1H-1,2,3-triazol-1-yl)hexyl)-2-(hydroxymethyl)piperidine-3,4,5-triol] | viability at 24 h, 50 µM [6]: 20.9%; cytotoxicity ([7]; HL60, 50 µM): exhibited cytotoxicity; also recorded: cytotoxic; cell survival rate [7]: 6.66%
